According to ChEMBL document CHEMBL1201862, “PubChem BioAssay data set” (2004):
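Assay format: 96-well plates, 48-hour exposure. At the GI50, growth is halved.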 Calls of active or inactive are those of the source. No stated cut-off is given here; in the data, active = GI50 up to about 1.1 µM and inactive = higher.

Columns and labels:
Experiment in all cases: NCI-60 cell line screen, 48 h
[1] = tested on: RPMI-8226
[2] = tested on: OVCAR-4
[3] = tested on: A549
[4] = tested on: SF-295
[5] = tested on: SK-MEL-28
[6] = tested on: NCI/ADR-RES
[7] = tested on: SF-268
[8] = tested on: K562
[9] = tested on: NCI-H522
[10] = tested on: SN12C
[11] = tested on: T47D
[12] = tested on: COLO 205
[13] = tested on: NCI-H226
[14] = tested on: OVCAR-5
[15] = tested on: MOLT-4
[16] = tested on: KM12
[17] = tested on: SNB-75
[18] = tested on: SK-OV-3
[19] = tested on: SF-539
[20] = tested on: MDA-N
[21] = tested on: HOP-62
[22] = tested on: OVCAR-3
[23] = tested on: LOX IMVI
[24] = tested on: 786-0
[25] = tested on: ACHN
[26] = tested on: HCT-15
[27] = tested on: MCF7
[28] = tested on: HOP-92
[29] = tested on: CAKI-1
[30] = tested on: HCC 2998
[31] = tested on: Malme-3M
[32] = tested on: MDA-MB-435
[33] = tested on: IGROV-1
[34] = tested on: UACC-257
[35] = tested on: HCT-116
[36] = tested on: A498
[37] = tested on: TK-10
[38] = tested on: RXF 393
[39] = tested on: NCI-H23
[40] = tested on: BT-549
[41] = tested on: SK-MEL-5
[42] = tested on: SK-MEL-2
[43] = tested on: MDA-MB-231
[44] = tested on: EKVX
[45] = tested on: PC-3
[46] = tested on: NCI-H460
[47] = tested on: UO-31
[48] = tested on: U-251
[49] = tested on: SNB-19
[50] = tested on: M14
[51] = tested on: SW-620
[52] = tested on: HL-60
[53] = tested on: OVCAR-8
[54] = tested on: SR
[55] = tested on: DU-145
[56] = tested on: HT-29
[57] = tested on: CCRF-CEM
[58] = tested on: UACC-62

Question: How did the GI50 [1] turn out when `CN(C)S(=O)(=O)n1ccnc1` was run?
Answer: > 100 µM (inactive)

Question: What about the GI50 [2] of the same molecule?
Answer: > 100 µM (inactive)

Question: What about the GI50 [3] of the same molecule?
Answer: > 100 µM (inactive)

Question: And the GI50 [4]?
Answer: > 100 µM (inactive)

Question: What about the GI50 [5] of the same molecule?
Answer: > 100 µM (inactive)

Question: What about the GI50 [6] of the same molecule?
Answer: > 100 µM (inactive)

Question: And the GI50 [7]?
Answer: > 100 µM (inactive)

Question: And the GI50 [8]?
Answer: > 100 µM (inactive)

Question: What about the GI50 [9] of the same molecule?
Answer: > 100 µM (inactive)

Question: What about the GI50 [10] of the same molecule?
Answer: > 100 µM (inactive)

Question: And the GI50 [11]?
Answer: > 100 µM (inactive)

Question: What about the GI50 [12] of the same molecule?
Answer: > 100 µM (inactive)

Question: What about the GI50 [13] of the same molecule?
Answer: > 100 µM (inactive)

Question: What about the GI50 [14] of the same molecule?
Answer: > 100 µM (inactive)

Question: And the GI50 [15]?
Answer: > 100 µM (inactive)

Question: What about the GI50 [16] of the same molecule?
Answer: > 100 µM (inactive)

Question: What about the GI50 [17] of the same molecule?
Answer: > 100 µM (inactive)

Question: And the GI50 [18]?
Answer: > 100 µM (inactive)

Question: What about the GI50 [19] of the same molecule?
Answer: > 100 µM (inactive)

Question: And the GI50 [20]?
Answer: > 100 µM (inactive)

Question: And the GI50 [21]?
Answer: > 100 µM (inactive)

Question: And the GI50 [22]?
Answer: > 100 µM (inactive)

Question: And the GI50 [23]?
Answer: > 100 µM (inactive)

Question: And the GI50 [24]?
Answer: > 100 µM (inactive)

Question: And the GI50 [25]?
Answer: > 100 µM (inactive)

Question: And the GI50 [26]?
Answer: > 100 µM

Question: And the GI50 [27]?
Answer: > 100 µM (inactive)

Question: What about the GI50 [28] of the same molecule?
Answer: > 100 µM (inactive)

Question: And the GI50 [29]?
Answer: > 100 µM (inactive)

Question: What about the GI50 [30] of the same molecule?
Answer: > 100 µM (inactive)

Question: And the GI50 [31]?
Answer: > 100 µM (inactive)

Question: What about the GI50 [32] of the same molecule?
Answer: > 100 µM (inactive)

Question: And the GI50 [33]?
Answer: > 100 µM (inactive)

Question: What about the GI50 [34] of the same molecule?
Answer: > 100 µM (inactive)

Question: And the GI50 [35]?
Answer: > 100 µM (inactive)

Question: And the GI50 [36]?
Answer: > 100 µM (inactive)

Question: What about the GI50 [37] of the same molecule?
Answer: > 100 µM (inactive)

Question: And the GI50 [38]?
Answer: > 100 µM (inactive)

Question: What about the GI50 [39] of the same molecule?
Answer: > 100 µM (inactive)

Question: What about the GI50 [40] of the same molecule?
Answer: > 100 µM (inactive)

Question: And the GI50 [41]?
Answer: > 100 µM (inactive)

Question: What about the GI50 [42] of the same molecule?
Answer: > 100 µM (inactive)

Question: What about the GI50 [43] of the same molecule?
Answer: > 100 µM (inactive)

Question: What about the GI50 [44] of the same molecule?
Answer: > 100 µM (inactive)

Question: What about the GI50 [45] of the same molecule?
Answer: > 100 µM (inactive)

Question: And the GI50 [46]?
Answer: > 100 µM (inactive)

Question: What about the GI50 [47] of the same molecule?
Answer: > 100 µM (inactive)

Question: And the GI50 [48]?
Answer: > 100 µM (inactive)

Question: And the GI50 [49]?
Answer: > 100 µM (inactive)

Question: What about the GI50 [50] of the same molecule?
Answer: > 100 µM (inactive)

Question: And the GI50 [51]?
Answer: > 100 µM (inactive)

Question: Which GI50 [1] does the source give for `CC(C)(C)[Si](C)(C)Oc1cc(CO)cc2c1cc(=N)o[n+]2[O-]` here?
Answer: 6.22 µM (inactive)

Question: And the GI50 [3]?
Answer: > 10 µM (inactive)

Question: What about the GI50 [4] of the same molecule?
Answer: > 10 µM (inactive)

Question: What about the GI50 [5] of the same molecule?
Answer: > 10 µM (inactive)

Question: What about the GI50 [52] of the same molecule?
Answer: 3.61 µM (inactive)

Question: And the GI50 [7]?
Answer: 6.03 µM (inactive)

Question: And the GI50 [8]?
Answer: 4.53 µM (inactive)

Question: And the GI50 [53]?
Answer: > 10 µM (inactive)

Question: What about the GI50 [10] of the same molecule?
Answer: 5.56 µM (inactive)

Question: What about the GI50 [11] of the same molecule?
Answer: 4.8 µM (inactive)

Question: What about the GI50 [12] of the same molecule?
Answer: > 10 µM (inactive)

Question: What about the GI50 [15] of the same molecule?
Answer: 2.61 µM (inactive)

Question: What about the GI50 [16] of the same molecule?
Answer: 4.1 µM (inactive)

Question: What about the GI50 [17] of the same molecule?
Answer: > 10 µM (inactive)

Question: And the GI50 [18]?
Answer: > 10 µM (inactive)

Question: What about the GI50 [20] of the same molecule?
Answer: > 10 µM (inactive)

Question: And the GI50 [21]?
Answer: > 10 µM (inactive)

Question: What about the GI50 [24] of the same molecule?
Answer: > 10 µM (inactive)

Question: What about the GI50 [26] of the same molecule?
Answer: 5.61 µM

Question: What about the GI50 [54] of the same molecule?
Answer: 2.48 µM (inactive)

Question: And the GI50 [27]?
Answer: 2.72 µM (inactive)

Question: What about the GI50 [55] of the same molecule?
Answer: > 10 µM (inactive)

Question: What about the GI50 [29] of the same molecule?
Answer: > 10 µM (inactive)

Question: What about the GI50 [30] of the same molecule?
Answer: 9.35 µM (inactive)

Question: And the GI50 [31]?
Answer: > 10 µM (inactive)

Question: And the GI50 [33]?
Answer: 8.15 µM (inactive)

Question: What about the GI50 [34] of the same molecule?
Answer: > 10 µM (inactive)

Question: What about the GI50 [37] of the same molecule?
Answer: > 10 µM (inactive)

Question: What about the GI50 [38] of the same molecule?
Answer: 3.96 µM (inactive)

Question: And the GI50 [39]?
Answer: 6.97 µM (inactive)

Question: What about the GI50 [56] of the same molecule?
Answer: 4.18 µM (inactive)

Question: And the GI50 [57]?
Answer: 2.84 µM (inactive)

Question: And the GI50 [41]?
Answer: > 10 µM (inactive)

Question: What about the GI50 [58] of the same molecule?
Answer: > 10 µM (inactive)

Question: What about the GI50 [43] of the same molecule?
Answer: > 10 µM (inactive)

Question: And the GI50 [44]?
Answer: > 10 µM (inactive)

Question: What about the GI50 [45] of the same molecule?
Answer: 4.01 µM (inactive)

Question: What about the GI50 [50] of the same molecule?
Answer: > 10 µM (inactive)

Question: And the GI50 [51]?
Answer: > 10 µM (inactive)

Question: How did the GI50 [2] turn out when `O=c1c2cc(Br)ccc2ncn1COCc1ccccc1` was run?
Answer: > 100 µM (inactive)

Question: What about the GI50 [3] of the same molecule?
Answer: 52.1 µM (inactive)

Question: What about the GI50 [4] of the same molecule?
Answer: > 100 µM (inactive)

Question: And the GI50 [5]?
Answer: > 100 µM (inactive)

Question: What about the GI50 [52] of the same molecule?
Answer: > 10 µM (inactive)

Question: What about the GI50 [8] of the same molecule?
Answer: 54.6 µM (inactive)

Question: And the GI50 [12]?
Answer: 93.8 µM (inactive)

Question: What about the GI50 [14] of the same molecule?
Answer: > 100 µM (inactive)

Question: And the GI50 [15]?
Answer: 42.8 µM (inactive)

Question: What about the GI50 [16] of the same molecule?
Answer: 52.6 µM (inactive)

Question: What about the GI50 [18] of the same molecule?
Answer: > 100 µM (inactive)

Question: What about the GI50 [19] of the same molecule?
Answer: > 100 µM (inactive)

Question: What about the GI50 [22] of the same molecule?
Answer: > 100 µM (inactive)

Question: And the GI50 [23]?
Answer: 38.7 µM (inactive)

Question: What about the GI50 [24] of the same molecule?
Answer: 70.3 µM (inactive)

Question: What about the GI50 [25] of the same molecule?
Answer: 23.8 µM (inactive)

Question: What about the GI50 [26] of the same molecule?
Answer: 64 µM

Question: And the GI50 [54]?
Answer: 56.5 µM (inactive)

Question: What about the GI50 [27] of the same molecule?
Answer: 37.1 µM (inactive)

Question: And the GI50 [28]?
Answer: > 100 µM (inactive)

Question: And the GI50 [55]?
Answer: > 100 µM (inactive)

Question: And the GI50 [30]?
Answer: > 100 µM (inactive)

Question: And the GI50 [32]?
Answer: > 100 µM (inactive)

Question: And the GI50 [33]?
Answer: 56.2 µM (inactive)

Question: And the GI50 [34]?
Answer: > 100 µM (inactive)

Question: And the GI50 [35]?
Answer: 61.8 µM (inactive)

Question: What about the GI50 [36] of the same molecule?
Answer: > 100 µM (inactive)

Question: What about the GI50 [37] of the same molecule?
Answer: 96.6 µM (inactive)

Question: What about the GI50 [38] of the same molecule?
Answer: 51.5 µM (inactive)

Question: What about the GI50 [57] of the same molecule?
Answer: 71 µM (inactive)

Question: And the GI50 [41]?
Answer: 31 µM (inactive)

Question: What about the GI50 [58] of the same molecule?
Answer: 80.5 µM (inactive)

Question: What about the GI50 [42] of the same molecule?
Answer: > 100 µM (inactive)

Question: What about the GI50 [44] of the same molecule?
Answer: 88.3 µM (inactive)

Question: And the GI50 [47]?
Answer: 24.1 µM (inactive)

Question: And the GI50 [48]?
Answer: > 100 µM (inactive)

Question: What about the GI50 [49] of the same molecule?
Answer: 45.6 µM (inactive)

Question: And the GI50 [50]?
Answer: 97.7 µM (inactive)

Question: What about the GI50 [51] of the same molecule?
Answer: > 100 µM (inactive)
